Data: patent US20060142269A1, “New compounds” (priority 2004, published 2006)
Structures can show the parent of a compound that is named as a salt. Where two headings read alike, the source gives them in different places.

Assays:
human 5-HT6 receptor [1] = target: T1, human 5-HT6 receptor (Homo sapiens, UniProt P50406); experiment: 5-HT6 receptor binding assay ([3H]-LSD displacement, SPA, membranes of transfected HEK293 cells)
T1 construct: expressed in transfected cells; host or cells: HEK293 (G-418 selected)
T1 sequence (P50406 whole entry): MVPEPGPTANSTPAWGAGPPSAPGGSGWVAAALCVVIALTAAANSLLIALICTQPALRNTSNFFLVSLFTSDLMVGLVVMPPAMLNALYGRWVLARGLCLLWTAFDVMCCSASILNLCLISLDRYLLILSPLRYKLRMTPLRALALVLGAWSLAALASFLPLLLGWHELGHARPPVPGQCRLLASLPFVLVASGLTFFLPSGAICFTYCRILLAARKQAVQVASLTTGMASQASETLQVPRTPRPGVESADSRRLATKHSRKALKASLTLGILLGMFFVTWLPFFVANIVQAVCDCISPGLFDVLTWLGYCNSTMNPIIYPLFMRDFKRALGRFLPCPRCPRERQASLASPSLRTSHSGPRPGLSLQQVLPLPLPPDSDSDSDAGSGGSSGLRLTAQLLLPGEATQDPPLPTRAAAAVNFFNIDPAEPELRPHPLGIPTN

human 5-HT6 receptor [2] = target: T1, human 5-HT6 receptor; experiment: 5-HT6 receptor intrinsic activity assay (inhibition of 5-HT induced increase in cAMP in HEK293/5-HT6 cells); assay type: cell-based; conditions: read-out: Antagonist potency at the human 5-HT6 receptor, IC50,corr
Experimental: (1997) Neuropharmacology 36: 713-720). Briefly, HEK293/5-HT6 cells were seeded in polylysine coated 96-well plates at a density of 25,000/well and grown in DMEM (Dulbecco's Modified Eagle Medium) (without phenol-red) containing 5% dialyzed Foetal Bovine Serum for 48 h at 37° C. in a 5% CO2 incubator. The medium was then aspirated and replaced by 0.1 ml assay medium (Hanks Balance Salt Solution containing 20 mM HEPES, 1.5 mM isobutylmethylxanthine and 1 mg/ml bovine serum albumin). After addition of test substances, 50 μl dissolved in assay medium, the cells were incubated for 10 min at 37° C. in a 5% CO2 incubator. The medium was again aspirated and the cAMP content was determined using a radioactive cAMP kit (Amersham Pharmacia Biotech, BIOTRAK RPA559).

[3] = [3H]LSD 3 nM, HEK293 membranes, read-out: Binding affinity (Ki) at the human 5-HT6 receptor

SMILES	IC50 (human 5-HT6 receptor [2])	further results
COc1ccc(C)cc1OS(=O)(=O)c1cc(N2CCNCC2)c2occc2c1 [Example 1, 2-Methoxy-5-methylphenyl 7-piperazin-1-yl-1-benzofuran-5-sulfonate, trifluoroacetate]		Ki (human 5-HT6 receptor [1]; [3]): 0.6 nM
O=S(=O)(Oc1ccccc1Cl)c1cc(N2CCNCC2)c2occc2c1 [Example 2, 2-Chlorophenyl 7-piperazin-1-yl-1-benzofuran-5-sulfonate, trifluoroacetate]	24 nM	Ki (human 5-HT6 receptor [1]; [3]): 2.3 nM
O=S(=O)(Oc1ccccc1C(F)(F)F)c1cc(N2CCNCC2)c2occc2c1 [Example 3, 2-(Trifluoromethyl)phenyl 7-piperazin-1-yl-1-benzofuran-5-sulfonate, trifluoroacetate]		Ki (human 5-HT6 receptor [1]; [3]): 2 nM
COc1ccc(C)cc1OS(=O)(=O)c1cc(CN2CCN(C)CC2)c2occc2c1 [Example 5, 2-Methoxy-5-methylphenyl 7-[(4-methylpiperazin-1-yl)methyl]-1-benzofuran-5-sulfonate bis(trifluoroacetate)]	49 nM	
NCCc1c[nH]c2ccc(O)cc12 [Example 5-HT, 5-hydroxytryptamine]		Hill coefficient (human 5-HT6 receptor [1]; over three experiments): 0.94 (SD 0.09)
CN1CCN(c2cc(S(=O)(=O)Oc3cccnc3)cc3ccoc23)CC1 [Example 7, Pyridin-3-yl 7-(4-methylpiperazin-1-yl)-1-benzofuran-5-sulfonate trifluoroacetate]	73 nM	
COc1cccc(OS(=O)(=O)c2cc(N3CCN[C@H](C)C3)c3occc3c2)c1OC [Example 9, 2,3-Dimethoxyphenyl 7-[(3R)-3-methylpiperazin-1-yl]-1-benzofuran-5-sulfonate trifluoroacetate]	49 nM	
C[C@@H]1CN(Cc2cc(S(=O)(=O)Oc3ccccc3C(N)=O)cc3ccoc23)CCN1 [Example 16, 2-(Aminocarbonyl)phenyl 7-{[(3R)-3-methylpiperazin-1-yl]methyl}-1-benzofuran-5-sulfonate bis(trifluoroacetate)]	199 nM	
COc1ccc(C)cc1OS(=O)(=O)c1cc(CN2CCCNCC2)c2occc2c1 [Example 18, 2-Methoxy-5-methylphenyl 7-(1,4-diazepan-1-ylmethyl)-1-benzofuran-5-sulfonate trifluoroacetate]	487 nM	
CN1C[C@@H](NS(=O)(=O)N(C)C)C[C@@H]2c3cccc4c3c(cn4C)C[C@H]21 [mesulergide]		Ki (human 5-HT6 receptor [1]; over all average, 5-HT tested against two different membrane preparations, read-out: Ki value, inhibition of [3H]LSD binding (rank order of potency of unlabelled ligands)): 1970 nM
CC[C@@H](CO)NC(=O)[C@@H]1C=C2c3cccc4c3c(cn4C)C[C@H]2N(C)C1 [methysergide]		Ki (human 5-HT6 receptor [1]): 482 nM
